Data published in patent US6951651B2, “CTL epitope analogs” (priority 1999, dated 2005).
Ends that are not written are not given here.

Columns and labels:
[1] = system: T cell clone 3-3F4; assay: Chromium release assay, peptide-sensitized targets lysed by T cell clone 3-3F4; assay type: cell-based, human; settings: for Conc. (nM): concentration of peptide in which specific killing was between 15 and 30 percent: HLA A*0201-restricted EBVLCL targets, 3-3F4 effectors, E:T=5, 10-fold dilutions 500-0.00005 nM; for recognition by T cell clone 3-3F4 (in words): chromium release assay; for Peptide Concentration (nM), Free Acid, 3-3F4 / Peptide Concentration (nM), Amide, 3-3F4: chromium release, T cell clone 3-3F4; for Peptide Concentration (nM), Amide, 3-3F4: carboxyl terminal amide peptide
Experimental: Nonamer peptides with the substitutions as shown at each position were synthesized as described in Example 1. […] Results of these assays are shown in the right-hand column of Table II, in terms of concentration of peptide (nM) in which specific killing was between 15 and 30 percent. Results presented are the average from at least three independent experiments carried out on different days using different batches of T cell […]. Peptides were tested using 10-fold dilutions, ranging from 500-0.00005 nM.
(§1) To take advantage of the increased immunogenicity of peptides 44 and 46, while maintaining the universal recognition of the native peptide, library-directed changes were made to peptides 44 and 46, substituting back the native amino acids. A series of 21 peptides were constructed based upon the sequence of the tetra-substituted peptides 44 and 46 in each of the carboxyl terminal amidated and free acid forms. The peptides contained single, double, or triple substitutions of amino acids of the native sequence at the positions indicated. These peptides were assayed utilizing a standard chromium release assay with the screening T cell clone, 3-3F4, and a representative T cell clone (VB57) from another individual expressing a different T cell receptor.

[2] = system: T cell clone VB57; assay: Chromium release assay, peptide-sensitized targets lysed by T cell clone VB57; assay type: cell-based, human; settings: for Peptide Concentration (nM), Amide, VB57: carboxyl terminal amide peptide
Description: as §1

Row | Substance | Conc. (nM): concentration of peptide in which specific killing was between 15 and 30 percent [1] [nM] | Peptide Concentration (nM), Free Acid, 3-3F4 [1] [nM] | Peptide Concentration (nM), Amide, VB57 [2] [nM] | Peptide Concentration (nM), Amide, 3-3F4 [1] [nM] | also measured
1 | 45N: nonamer YLLPMVVPV amide, SEQ ID NO 28 (YLLPMVVPV-NH2) [Peptide 45N] | >500 | – | – | – | recognition by T cell clone 3-3F4 (in words) [1]: less active than the native sequence
2 | 47N: nonamer YLLPMVTPV amide, SEQ ID NO 23 (YLLPMVTPV-NH2) [Peptide 47N] | 500 | – | – | – | recognition by T cell clone 3-3F4 (in words) [1]: less active than the native sequence
3 | 48N: nonamer YLLPYVVSV amide, SEQ ID NO 29 (YLLPYVVSV-NH2) [Peptide 48N] | >500 | – | – | – | –
4 | 49N: nonamer YLLPYVVPV amide, SEQ ID NO 30 (YLLPYVVPV-NH2) [Peptide 49N] | >500 | – | – | – | –
5 | 50N: nonamer YLLPYVTSV amide, SEQ ID NO 31 (YLLPYVTSV-NH2) [Peptide 50N] | >500 | – | – | – | –
6 | 51N: nonamer YLLPYVTPV amide, SEQ ID NO 32 (YLLPYVTPV-NH2) [Peptide 51N] | >500 | – | – | – | –
7 | 52N: nonamer YLLWMVVSV amide, SEQ ID NO 24 (YLLWMVVSV-NH2) [Peptide 52N] | 500 | – | – | – | –
8 | 53N: nonamer YLLWMVVPV amide, SEQ ID NO 25 (YLLWMVVPV-NH2) [Peptide 53N] | 500 | – | – | – | –
9 | 54N: nonamer YLLWMVTSV amide, SEQ ID NO 21 (YLLWMVTSV-NH2) [Peptide 54N] | 0.5 | – | – | – | –
10 | 55N: nonamer YLLWMVTPV amide, SEQ ID NO 26 (YLLWMVTPV-NH2) [Peptide 55N] | 500 | – | – | – | –
11 | 56N: nonamer YLLWYVVSV amide, SEQ ID NO 22 (YLLWYVVSV-NH2) [Peptide 56N] | 50 | – | – | – | –
12 | 57N: nonamer YLLWYVVPV amide, SEQ ID NO 33 (YLLWYVVPV-NH2) [Peptide 57N] | >500 | – | – | – | –
13 | 58N: nonamer YLLWYVTSV amide, SEQ ID NO 27 (YLLWYVTSV-NH2) [Peptide 58N] | 500 | – | – | – | –
14 | 59N: nonamer YLLWYVTPV amide, SEQ ID NO 34 (YLLWYVTPV-NH2) [Peptide 59N] | >500 | – | – | – | –
15 | 110C: nonamer NLVPMVVTV, SEQ ID NO 42 (NLVPMVVTV-OH) [Peptide 110C] | – | 0.5 | – | – | –
16 | 110N: nonamer NLVPMVVTV amide, SEQ ID NO 41 (NLVPMVVTV-NH2) [Peptide 110N] | – | – | >5 | 0.05 | –
17 | 111C: nonamer NLVPMVTTV, SEQ ID NO 44 (HCMV vaccine peptide) [Peptide 111C] | – | 0.05 | – | – | Peptide Concentration (nM), Free Acid, VB57 [2]: 5 nM; recognition by T cell clone 3-3F4 (in words) [1]: equivalent to its amidated counterpart
18 | 111N: nonamer NLVPMVTTV amide, SEQ ID NO 43 (NLVPMVTTV-NH2) [Peptide 111N] | – | – | >5 | 0.05 | –
19 | 112C: nonamer NLVPMVASV, SEQ ID NO 46 (NLVPMVASV-OH) [Peptide 112C] | – | 5 | – | – | Peptide Concentration (nM), Free Acid, VB57 [2]: 0.5 nM
20 | 112N: nonamer NLVPMVASV amide, SEQ ID NO 45 (NLVPMVASV-NH2) [Peptide 112N] | – | – | 0.5 | 0.5 | –
21 | 113C: nonamer YLVPMVVTV, SEQ ID NO 60 (YLVPMVVTV-OH) [Peptide 113C] | – | >5 | – | – | –
22 | 113N: nonamer YLVPMVVTV amide, SEQ ID NO 59 (YLVPMVVTV-NH2) [Peptide 113N] | – | – | >5 | 0.5 | –
23 | 114C: nonamer YLVPMVTTV, SEQ ID NO 62 (YLVPMVTTV-OH) [Peptide 114C] | – | 0.5 | – | – | Peptide Concentration (nM), Free Acid, VB57 [2]: 5 nM
24 | 114N: nonamer YLVPMVTTV amide, SEQ ID NO 61 (YLVPMVTTV-NH2) [Peptide 114N] | – | – | 5 | 0.05 | –
25 | 116C: nonamer NLLPMVVTV, SEQ ID NO 48 (NLLPMVVTV-OH) [Peptide 116C] | – | >5 | – | – | –

Row | Substance | Conc. (nM): concentration of peptide in which specific killing was between 15 and 30 percent [1] [nM] | Peptide Concentration (nM), Free Acid, 3-3F4 [1] [nM] | Peptide Concentration (nM), Amide, VB57 [2] [nM] | Peptide Concentration (nM), Amide, 3-3F4 [1] [nM] | also measured
26 | 116N: nonamer NLLPMVVTV amide, SEQ ID NO 47 (NLLPMVVTV-NH2) [Peptide 116N] | – | – | >5 | 0.5 | –
27 | 117C: nonamer NLLPMVTTV, SEQ ID NO 50 (NLLPMVTTV-OH) [Peptide 117C] | – | 0.5 | – | – | Peptide Concentration (nM), Free Acid, VB57 [2]: 5 nM
28 | 117N: nonamer NLLPMVTTV amide, SEQ ID NO 49 (NLLPMVTTV-NH2) [Peptide 117N] | – | – | >5 | 0.05 | –
29 | 119C: nonamer NLVPMVVSV, SEQ ID NO 54 (NLVPMVVSV-OH) [Peptide 119C] | – | >5 | – | – | Peptide Concentration (nM), Free Acid, VB57 [2]: >5 nM
30 | 119N: nonamer NLVPMVVSV amide, SEQ ID NO 53 (NLVPMVVSV-NH2) [Peptide 119N] | – | – | >5 | 0.005 | –
31 | 120C: nonamer NLVPMVTSV, SEQ ID NO 56 (NLVPMVTSV-OH) [Peptide 120C] | – | 5 | – | – | Peptide Concentration (nM), Free Acid, VB57 [2]: >5 nM
32 | 120N: nonamer NLVPMVTSV amide, SEQ ID NO 55 (NLVPMVTSV-NH2) [Peptide 120N] | – | – | >5 | 0.05 | –
33 | 121C: nonamer YLLPMVVTV, SEQ ID NO 74 (YLLPMVVTV-OH) [Peptide 121C] | – | >5 | – | – | –
34 | 121N: nonamer YLLPMVVTV amide, SEQ ID NO 73 (YLLPMVVTV-NH2) [Peptide 121N] | – | – | >5 | 5 | –
35 | 122C: nonamer YLLPMVTTV, SEQ ID NO 76 (YLLPMVTTV-OH) [Peptide 122C] | – | >5 | – | – | Peptide Concentration (nM), Free Acid, VB57 [2]: >5 nM
36 | 122N: nonamer YLLPMVTTV amide, SEQ ID NO 75 (YLLPMVTTV-NH2) [Peptide 122N] | – | – | >5 | 5 | –
37 | 123C: nonamer YLLPMVASV, SEQ ID NO 78 (YLLPMVASV-OH) [Peptide 123C] | – | >5 | – | – | Peptide Concentration (nM), Free Acid, VB57 [2]: >5 nM
38 | 123N: nonamer YLLPMVASV amide, SEQ ID NO 77 (YLLPMVASV-NH2) [Peptide 123N] | – | – | 0.5 | 0.05 | –
39 | 124C: nonamer YLVPMVVSV, SEQ ID NO 70 (YLVPMVVSV-OH) [Peptide 124C] | – | >5 | – | – | Peptide Concentration (nM), Free Acid, VB57 [2]: >5 nM
40 | 124N: nonamer YLVPMVVSV amide, SEQ ID NO 69 (YLVPMVVSV-NH2) [Peptide 124N] | – | – | 5 | 0.5 | –
41 | 125C: nonamer YLVPMVTSV, SEQ ID NO 72 (YLVPMVTSV-OH) [Peptide 125C] | – | >5 | – | – | Peptide Concentration (nM), Free Acid, VB57 [2]: >5 nM
42 | 125N: nonamer YLVPMVTSV amide, SEQ ID NO 71 (YLVPMVTSV-NH2) [Peptide 125N] | – | – | >5 | 0.05 | –
43 | 126C: nonamer NLLPMVVSV, SEQ ID NO 66 (NLLPMVVSV-OH) [Peptide 126C] | – | 5 | – | – | Peptide Concentration (nM), Free Acid, VB57 [2]: >5 nM
44 | 126N: nonamer NLLPMVVSV amide, SEQ ID NO 65 (NLLPMVVSV-NH2) [Peptide 126N] | – | – | 0.5 | 0.005 | –
45 | 127C: nonamer NLLPMVTSV, SEQ ID NO 68 (NLLPMVTSV-OH) [Peptide 127C] | – | 5 | – | – | Peptide Concentration (nM), Free Acid, VB57 [2]: >5 nM
46 | 127N: nonamer NLLPMVTSV amide, SEQ ID NO 67 (NLLPMVTSV-NH2) [Peptide 127N] | – | – | >5 | 0.05 | –
47 | 194C: nonamer NLLPMVATV, SEQ ID NO 40 (NLLPMVATV-OH) [Peptide 194C] | – | >5 | – | – | Peptide Concentration (nM), Free Acid, VB57 [2]: >5 nM
48 | 194N: nonamer NLLPMVATV amide, SEQ ID NO 39 (NLLPMVATV-NH2) [Peptide 194N] | – | – | 0.5 | 0.05 | –
49 | A7N: native sequence NLVPMVATV with amidated carboxyl terminus, SEQ ID NO 18 (NLVPMVATV-NH2) [Peptide A7N] | 0.5 | – | – | – | –
